# From patent publication US20230128194A1, “METHODS AND COMPOSITIONS TO ALTER HEPATIC GABA RELEASE TO TREAT OBESITY-RELATED CONDITIONS” (ARIZONA BOARD OF REGENTS ON BEHALF OF THE UNIVERSITY OF …, priority 2017, published 2023)
# Key:
# [1] = molecular target: T1, GABA-T (Mus musculus, UniProt P61922); experiment: liver slice GABA export with GABA-T inhibitor ex vivo; format: cell-based; conditions: 5.3 mM
# T1 construct: from tissue; host or cells: liver slices of lean, obese and obese Kir2.1-expressing mice
# T1 sequence (P61922 29-500): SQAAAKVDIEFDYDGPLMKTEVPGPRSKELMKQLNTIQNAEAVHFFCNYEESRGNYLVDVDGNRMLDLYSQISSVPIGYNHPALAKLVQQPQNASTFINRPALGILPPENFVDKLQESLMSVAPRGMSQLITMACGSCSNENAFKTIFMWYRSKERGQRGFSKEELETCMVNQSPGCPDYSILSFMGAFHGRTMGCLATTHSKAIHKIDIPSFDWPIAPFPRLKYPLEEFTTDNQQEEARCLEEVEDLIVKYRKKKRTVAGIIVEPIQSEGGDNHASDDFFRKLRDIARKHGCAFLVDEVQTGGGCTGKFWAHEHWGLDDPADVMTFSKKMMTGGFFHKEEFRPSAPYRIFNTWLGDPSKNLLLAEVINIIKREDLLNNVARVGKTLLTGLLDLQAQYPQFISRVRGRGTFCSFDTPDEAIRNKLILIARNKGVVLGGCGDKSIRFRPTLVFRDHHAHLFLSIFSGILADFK
# Description: Two liver slices were taken from each mouse.
# [2] = tested on: obese hepatic vagotomized and sham operated mice; experiment: EOS (8 mg/day) in HFD-induced obese sham operated and hepatic vagotomized mice; format: in vivo, mouse
# Protocol: Surgeries were performed in 12-week old male C57BL/6J mice under isoflurane anesthesia. Mice were randomly assigned to a surgical group (sham or vagotomy). A ventral midline incision through the skin and peritoneum allowed us to isolate the hepatic vagus nerve as it branched from the esophagus. In vagotomized mice, the hepatic vagal nerve was severed, while it remained intact in sham operated mice. The peritoneum was sutured with absorbable polyglactin 910 suture and the skin with nylon suture. Mice were given a single post-operative dose of slow release formulated buprenorphine analgesic (1.2 mg/kg slow release, sub-cutaneous). Food intake and body weight were monitored daily and sutures were removed 7 days post-operation.
# Wildtype lean and obese mice were randomly divided into treatment groups and dosed daily with 8 mg of ethanolamine-O-sulfate (EOS; Sigma-Aldrich, St. Louis, Mo.), vigabatrin (United States Pharmacopeia, Rockville, Md.) or PBS. Obese sham and vagotomy mice were dosed daily with 8 mg of EOS. In all cases, basal bleeds were taken prior to initiation of an ITT. Lean mice received treatment by oral gavage (0.3 mL/mouse) while obese mice were treated by intraperitoneal injection (0.3 mL/mouse). Pre-treatment studies were conducted in the week immediately prior to beginning drug administration. Daily doses took place at 9 am each day and oral glucose tolerance tests (OGTT) and insulin tolerance tests (ITT) were performed on the third and fourth days of treatment in lean mice, respectively. In wildtype obese mice, OGTT and ITT were performed on the fourth day of treatment in separate cohorts. On the fifth day of treatment, 2DG clearance studies were performed. In sham/vagotomy mice, OGTT and ITT were performed on the fourth and fifth day of treatment, respectively. After a 2-week washout period without treatment injection, a basal bleed and bleed 15 minutes after an oral glucose gavage ([…]) to determine oral glucose stimulated insulin secretion were performed.
# Oral glucose (2.5 g/kg; 0.1 mL/10 g body weight; Chem-Impex Int'l Inc., Wood Dale, Ill.) was given to 4 hour fasted individually housed mice. All glucose tolerance tests began at […] and glucose was measured in whole blood, collected from the tail vein, by glucometer (Manufacture #D2ASCCONKIT, Bayer, Leverkusen, Germany) at 0, 15, 30, 60, 90, and 120 minutes after glucose gavage. Blood for serum insulin (oral glucose stimulated insulin secretion; OGSIS) and glucose determination was collected from the tail vein 15 minutes following glucose administration.
# Intraperitoneal insulin (0.5 U/kg; 0.1 mL/10 g body weight; Sigma Aldrich, St. Louis, Mo.) was given to 4 hour fasted individually housed mice. All insulin tolerance tests began at […] and glucose was measured in whole blood, collected from the tail vein, by glucometer (Manufacture #D2ASCCONKIT, Bayer, Leverkusen, Germany) at 0, 30, 60, 90, and 120 minutes after insulin injection.
# [3] = tested on: high fat diet-induced obese mice; experiment: muscle cGMP content (ELISA); format: in vivo, mouse; conditions: day 5
# Protocol: On the fifth day of EOS or PBS treatment, mice were sacrificed and the quadricep and soleus tissues were collected and frozen on dry ice. Prior to analysis, frozen quadricep were powdered using a liquid nitrogen cooled mortar and pestle to obtain homogenous muscle samples. 15-20 mg of quadricep and the entire soleus tissue (6-12 mg) were homogenized in 200 μL of a 5% trichloroacetic acid solution. Following 15 minutes of centrifugation at 3,000×g at 4° C., supernatant was transferred to a fresh tube for analysis of muscle cGMP by enzyme-linked immunosorbent assay (ELISA; ADI-900-164, Enzo Life Sciences, Farmingdale, N.Y.).
smiles,measurement,setting,value
"NCCOS(=O)(=O)O [EOS, ethanolamine-O-sulfate]",GABA export,[1]; obese Kir2.1 expressing liver slices,decreased
same,GABA export,[1]; obese control liver slices,decreased
same,responses to EOS in vagotomized mice,[2]; hepatic vagotomized obese mice,eliminated most of the responses
same,serum glucose,[2]; hepatic vagotomized obese mice,decrease
same,glucose stimulated serum insulin,[2]; sham operated obese mice,diminished
same,glucose:insulin ratio,[2]; sham operated obese mice,elevated
same,insulin sensitivity by insulin tolerance test,[2]; sham operated obese mice,tended to improve
same,oral glucose tolerance,[2]; sham operated obese mice,improved
same,serum glucose,[2]; sham operated obese mice,decreased
same,serum insulin,[2]; sham operated obese mice,decreased
same,all parameters after washout,"[2]; sham operated obese mice, 2-week washout",restored all parameters to pre-treatment measures
same,body weight between surgical groups,"[2]; sham vs vagotomized, during EOS treatment",did not differ
same,cGMP in quad,[3],no effect
same,increase of cGMP in the soleus,[3],59%
